# Results taken from patent US20220257595A1, “MACITENTAN FOR USE IN TREATING PORTOPULMONARY HYPERTENSION” (ACTELION PHARMACEUTICALS LTD, priority 2019, published 2022).
# Assays:
# Format in all cases: in vivo, human
# [1] = test system: patients with PoPH; experiment: PORTICO: Borg dyspnea index after 6MWT; conditions: DB period
# Description: (§1) (iv) 6-minute walk test, including Borg dyspnea index: The 6MWT was performed at Screening, Baseline (Visit 2/Randomization), and then every Visit until EOT-DB or EOT-OL, whichever came last. It is a non-encouraged test that measures the distance walked by the patient in six minutes. It is important that for each individual patient the 6MWT was conducted under the same conditions throughout the study (e.g., same location, same tester, same time of day, with or without nasal oxygen therapy and where applicable with same flow rate as Baseline). The Borg dyspnea index was evaluated after each 6MWT. It rates dyspnea on a scale from 0 to 10.
# Double-blind treatment period: Changes from baseline to Week 12 in HVPG/HVPG (central review) and Borg dyspnea index (related to the DB treatment period) are summarized by treatment group in the FAS using descriptive statistics.
# [2] = test system: patients with PoPH; experiment: PORTICO: 6-minute walk test (6MWD)
# Description: as §1
# Handling of missing data: For change from baseline to Weeks 4, 8 and 12 in 6MWD and WHO FC, the last available value (including baseline) was carried forward unless the patient died before, or on Day 42, 70, 98 (the upper limit treatment days of Weeks 4, 8 and 12 windows, respectively), in which case the following rules considering worst case were used to replace all the missing values from the week after death up to Week 12: • For 6MWD, worst fixed value was set to 0, • For WHO FC, worst fixed value was set to class IV, • For change from baseline to Week 12 in NT-proBNP, the same imputation rule as for PVR was applied as described herein.
# Statistical analysis: The change from baseline to Week 12 in mRAP, mPAP, cardiac index, TPR and SVO2 were analyzed on the FAS (with imputation) using an ANCOVA with factors for treatment group, background PAH-specific therapy at baseline (Yes/No as per IXRS, randomization stratification factor), region (Europe/North America/Latin America as per IXRS, randomization stratification factor) and a covariate for baseline corresponding variable. Other RHC variables are listed only. WHO FC is summarized on the FAS (with imputation) by time point and treatment group using frequency tables. Changes from baseline in WHO FC were dichotomized as worsening (i.e., change >0) versus no change or improvement (i.e., change ≤0). Worsening was analyzed using a logistic regression model (exact) with covariates for treatment group, background PAH-specific therapy at baseline (Yes/No as per IXRS, randomization stratification factor) and region (Europe/North America/Latin America as per IXRS, randomization stratification factor). 6MWD is summarized on the FAS (with imputation) by time point and treatment group using descriptive statistics. Change from baseline to each time point is summarized similarly. Change from baseline in 6MWD (up to Week 12) was analyzed using a mixed-effect model repeated measure (MMRM) with factors for treatment group, time point, treatment by time interaction, background PAH-specific therapy at baseline (Yes/No as per IXRS, randomization stratification factor) and region (Europe/North America/Latin America as per IXRS, randomization stratification factor), and covariates for baseline 6MWD and WHO FC. An unstructured covariance matrix was used to account for the correlation between repeated measurements from the same patient. NT-proBNP is summarized on the FAS (with imputation) by time point and treatment group using descriptive statistics as well as geometric means and CVs. The ratio of Week 12 to baseline NT-proBNP is summarized similarly. The ratio versus baseline in NT-proBNP was log-transformed and analyzed using an ANCOVA with covariates for treatment group, background PAH-specific therapy at baseline (Yes/No as per IXRS, randomization stratification factor), region (Europe/North America/Latin America as per IXRS, randomization stratification factor) and baseline log NT-proBNP.
# Supportive/sensitivity analyses: The main MMRM model analysis for 6MWD was also performed without stratification factors. […]
# [3] = test system: patients with PoPH; experiment: Post-hoc: MELD exception eligibility (mPAP/PVR)
# Description: Post-Hoc, Exploratory Criteria: • Proportion of patients with NT-proBNP decrease from above 300 ng/L to below this threshold • Odds ratio for improvement to a more favorable liver transplant perioperative risk category • Odds ratio for becoming eligible for the MELD exception • Odds ratio for improvement to a more favorable waitlist mortality risk category
# Risk categories related to liver transplant (transplant perioperative risk classification, MELD exception eligibility and waitlist mortality risk) were analyzed descriptively by treatment group using shift tables from baseline to Week 12 with categories as defined in Example 1.
# LT perioperative risk classification, MELD exception eligibility, and waitlist mortality analyses were performed after the database lock and SDTMs delivery for the Double-Blind period. Number (%) of patients in following categories were summarized and presented in shift tables. The estimated odds ratio for risk improvement and corresponding 95% confidence intervals were obtained from an exact logistic regression (macitentan vs placebo) with factors for treatment and risk category at baseline.
# In general, liver grafts are attributed in priority to patients who need a liver transplant the most urgently. This assessment lies mostly on the Model for End-stage Liver Disease (MELD) score: the higher the score, the higher the patient's priority on the waiting list. In PoPH, by the time MELD score is high enough to obtain a liver graft, the hemodynamic state is generally too severely impaired for the procedure. In the US, a PoPH MELD exception rule (MELD exception) is in place to facilitate access to a liver graft to patients with PoPH who attain mPAP ≤[…] and PVR ≤400 dyn·sec·cm^−5 with PAH treatment. Patients are priority-ranked on the waitlist with a higher MELD score than their actual score. This allows obtaining a liver graft at a time when liver impairment is moderate, before cardiopulmonary impairment becomes a contraindication to transplant.
# [4] = 10 mg o.d., FAS with imputation, N=43
# [5] = MTS without imputation, macitentan in both DB and OL periods
# [6] = MTS without imputation, macitentan only in OL period (DB placebo patients)
structure (smiles),measurement,setting,value
"CCCNS(=O)(=O)Nc1ncnc(OCCOc2ncc(Br)cn2)c1-c1ccc(Br)cc1 [macitentan, N-[5-(4-Bromophenyl)-6-[2-[(5-bromo-2-pyrimidinyl)oxy]ethoxy]-4-pyrimidinyl]-N′-propylsulfamide]",Change in Borg dyspnea score over time,[1],no change
same,"6MWD at Week 4, mean ± SD",[2]; [4],392.5 ± 93.74 m
same,"6MWD at Week 8, mean ± SD",[2]; [4],390.3 ± 99.35 m
same,"6MWD at Week 12, mean ± SD",[2]; [4],392.2 ± 98.46 m
same,"Change from baseline to Week 4 in 6MWD, mean ± SD",[2]; [4],6.7 ± 44.55 m
same,"Change from baseline to Week 8 in 6MWD, mean ± SD",[2]; [4],4.5 ± 67.40 m
same,"Change from baseline to Week 12 in 6MWD, mean ± SD",[2]; [4],6.4 ± 65.74 m
same,"LS mean difference (macitentan-placebo), change in 6MWD to Week 12, ANCOVA sensitivity analysis",[2]; FAS,10.05 m
same,"Difference in LS means macitentan-placebo, change in 6MWD at Week 4","[2]; MMRM, FAS",23.02 m
same,"Difference in LS means macitentan-placebo, change in 6MWD at Week 8","[2]; MMRM, FAS",14.47 m
same,"Difference in LS means macitentan-placebo, change in 6MWD at Week 12","[2]; MMRM, FAS",9.73 m
same,"Difference in LS means macitentan-placebo, change in 6MWD, overall","[2]; MMRM, FAS, Weeks 4-12 overall",Overall: 15.74 m
same,Mean (±SD) change from baseline in 6MWD at Week 4,[2]; [5],7.0±45.62 m
same,Mean (±SD) change from baseline in 6MWD at Week 24,[2]; [5],22.0±42.55 m
same,Mean (±SD) change from macitentan baseline in 6MWD at Week 4,[2]; [6],11.5±31.67 m
same,Mean (±SD) change from macitentan baseline in 6MWD at Week 12,[2]; [6],13.9±39.27 m
same,Mean (±SD) observed difference at Week 12 (macitentan-placebo) in 6MWD,[2]; no imputation,18.4 m
same,Increase in walk distance from baseline to Week 24,"[2]; patients originally randomised to macitentan, followed into open-label period",20 m
same,Liver transplant (MELD exception) eligibility based on mPAP/PVR: Week 12 Category 2 (mPAP ≤ 35 and PVR ≤ 400 dyn · sec/cm^5 = NO),"[3]; Baseline Category 1 (n = 1), Full analysis set, 10 mg, N = 43",0 n (%)
same,Liver transplant (MELD exception) eligibility based on mPAP/PVR: Week 12 Category 1 (mPAP ≤ 35 and PVR ≤ 400 dyn · sec/cm^5 = YES),"[3]; Total, Full analysis set, 10 mg, N = 43",9 n (%)
same,"Odds of becoming eligible for the MELD exception, macitentan vs placebo","[3]; Week 12, exact logistic regression",4.51 times
same,Patients not meeting MELD exception criteria at baseline who met them (mPAP ≤35 mmHg and PVR ≤400 dyn·sec·cm^−5),"[3]; after 12 weeks, FAS no imputation, 8 patients",18.6%
same,"Liver transplant eligibility: Between-treatment odds ratio for improvement, OR","[3]; macitentan vs placebo, exact logistic regression, 95% CI 0.822, 46.462, p-value 0.0958",4.512
